Data as given in patent US8476305B2, “Therapeutic agent or prophylactic agent for inflammatory bowel disease comprising amino alcohol derivative as active ingredient” (Kyorin Pharmaceutical Co., Ltd., priority 2008, dated 2013).

Test system: SCID CD4+ CD45RBhigh T cell transfer colitis model
Assay: SCID CD4+ CD45RBhigh T cell transfer colitis model
Type: in vivo, SCID mice
Conditions: for Total number of leukocytes (cells/μL): blood on the day after final administration; for Total number of leukocytes (cells/μL) / Change ratio of body weight (%) On the fourth week / Change ratio of body weight (%) On the third week: mean ± standard error
Text: SCID CD4^+ CD45RB^high T cell transfer colitis model has been reported as a model resembling to Crohn's disease due to its histopathological characteristics and the produced cytokines (Powrie F et al, Immunity, 1, 553-562, 1994). In addition, this model has also been used for evaluation of a medicine which is used in the treatment of inflammatory bowel disease and its effectiveness has been reported (Liu Z et al., J. Autoimmunl., 29, 187-194, 2007).
C.B-17/Icr-scid/scid Jcl (SCID mice) (female, 8 weeks of age, mouse to be transferred) and BALB/c Cr Slc (BALB/c mice) (female, 8 weeks of age, mouse for transfer cell preparation) were obtained and used in the test. CD4^+ CD45RB^high T cells (naive T cells) prepared from the spleen of BALB/c mice were transferred intraperitoneally into the SCID mice at a concentration of 3×10^5 cells/body, and then colitis was induced by breeding it for 4 weeks. Preparation of the CD4^+ CD45RB^high T cells was carried out in accordance with the method of Uraushihara et al. (J. Immunol., 171, 708-716, 2003) and FACSAriaCell Sorter (Becton Dickinson Japan) was used as a cell separator.
The compound produced in Example 27 (compound 27) was dissolved in distilled water and orally administered at doses of 0.3 mg/kg, 1 mg/kg and 3 mg/kg, once a day for 4 weeks starting on the preceding day of cell transfer. Distilled water alone was administered to the vehicle group. Body weight was determined every day during the administration period. The change ratio (%) of the body weight on the determination day was calculated based on the body weight on the day of the start of administration. On the next day of final administration, blood was collected and the large intestine was extracted. The total number of leukocytes was measured using the collected blood. After fixing the extracted large intestine with formalin, tissue sections were prepared and hematoxylin-eosin staining was carried out. Evaluation was performed in accordance with the scoring system (Uraushihara K et al., J. Immunol., 171, 708-716, 2003). That is, the large intestine was roughly divided into 3 regions (proximal region, middle region and distal region), and scoring was carried out on the 3 layers, which are mucosa, submucosa and muscularis, of each region. By totaling the obtained scores of each region, the value having the highest total score among the three regions was used as the score of the individual. The change ratio of the body weight and the total number of leukocytes were shown by mean±standard error and the pathological score was shown by median.

[1] = 0.3 mg/kg orally once a day for 4 weeks
[2] = 1 mg/kg orally once a day for 4 weeks
[3] = 3 mg/kg orally once a day for 4 weeks
[4] = in comparison with the vehicle group, result in words

C[C@](N)(CO)CCCc1ccc(Sc2cccc(C(F)(F)F)c2)cc1Cl.Cl [Compound 27, (R)-2-amino-5-[2-chloro-4-(3-trifluoromethylphenylthio)phenyl]-2-methylpentan-1-ol hydrochloride]
Total number of leukocytes (cells/μL) [1]: 2733 ± 561 cells/μL
Change ratio of body weight (%) On the fourth week [1]: −1.0 ± 2.2%
Pathological score (0.3 mg/kg orally once a day for 4 weeks, large intestine histology, median): 5
Change ratio of body weight (%) On the third week [1]: 1.1 ± 1.4 %
Total number of leukocytes (cells/μL) [2]: 1980 ± 241 cells/μL
Change ratio of body weight (%) On the fourth week [2]: −1.4 ± 2.0%
Pathological score (1 mg/kg orally once a day for 4 weeks, large intestine histology, median): 5
Change ratio of body weight (%) On the third week [2]: 1.5 ± 0.8 %
Total number of leukocytes (cells/μL) [3]: 1720 ± 327 cells/μL
Change ratio of body weight (%) On the fourth week [3]: −0.8 ± 2.0 %
Pathological score (3 mg/kg orally once a day for 4 weeks, large intestine histology, median): 3.5
Change ratio of body weight (%) On the third week [3]: 0.5 ± 1.2 %
body weight loss [4]: significantly suppressed
total number of leukocytes [4]: significantly suppressed
effect on the SCID CD4+ CD45RBhigh T cell transfer colitis model (overall conclusion in words): shows the suppressive effect
Pathological score (result in words): suppressive effect was found
